Measured values as given in patent US4670038A, “Cyclotriphosphazatriene-derivatives as soil urease activity inhibitors” (Tennessee Valley Authority, priority 1986, dated 1987).
“Also recorded” adds a separate entry of the source.

Tested on: soil urease
Assay: Soil urease inhibition in Crowley silt loam soil, extended time evaluation system (urea added at selected intervals)
Type: biochemical
Details: 7 micromoles compound per 120 g Crowley silt loam, 30° C.; urea added after 0 days, reincubated 16 hours

SMILES	Soil Urease Inhibition, 0 Days [%]
NP1(N)=NP(N)(N)=NP(N)(N)=N1 [P3 N3 (NH2)6, 2,2,4,4,6,6-hexaaminocyclotriphosphazatriene]	46
NP(N)(N)=O [PO(NH2)3, Phosphoryltriamide, reference compound]	29

Same assay, conditions: 7 micromoles compound per 120 g Crowley silt loam, 30° C.; urea added after 3 days, reincubated 16 hours

SMILES	Soil Urease Inhibition, 3 Days [%]
NP1(N)=NP(N)(N)=NP(N)(N)=N1 [P3 N3 (NH2)6, 2,2,4,4,6,6-hexaaminocyclotriphosphazatriene]	23
NP(N)(N)=O [PO(NH2)3, Phosphoryltriamide, reference compound]	4

Same assay, conditions: 7 micromoles compound per 120 g Crowley silt loam, 30° C.; urea added after 7 days, reincubated 16 hours

SMILES	Soil Urease Inhibition, 7 Days [%]
NP1(N)=NP(N)(N)=NP(N)(N)=N1 [P3 N3 (NH2)6, 2,2,4,4,6,6-hexaaminocyclotriphosphazatriene]	20
NP(N)(N)=O [PO(NH2)3, Phosphoryltriamide, reference compound]	12

Same assay, conditions: 7 micromoles compound per 120 g Crowley silt loam, 30° C.; urea added after 14 days, reincubated 16 hours

SMILES	Soil Urease Inhibition, 14 Days [%]
NP1(N)=NP(N)(N)=NP(N)(N)=N1 [P3 N3 (NH2)6, 2,2,4,4,6,6-hexaaminocyclotriphosphazatriene]	4
NP(N)(N)=O [PO(NH2)3, Phosphoryltriamide, reference compound]	0

Same assay, conditions: 7 micromoles compound per 120 g Crowley silt loam, 30° C.; urea added after 21 days, reincubated 16 hours

SMILES	Soil Urease Inhibition, 21 Days [%]
NP1(N)=NP(N)(N)=NP(N)(N)=N1 [P3 N3 (NH2)6, 2,2,4,4,6,6-hexaaminocyclotriphosphazatriene]	4
NP(N)(N)=O [PO(NH2)3, Phosphoryltriamide, reference compound]	0

Same assay, conditions: 7 micromoles compound per 120 g Crowley silt loam, 30° C.; urea added after 21 days, reincubated 16 hours; listed as hexaaminocyclotriphosphazatriene

SMILES	Soil Urease Inhibition, 21 Days
NP1(N)=NP(N)(N)=NP(N)(N)=N1 [P3 N3 (NH2)6, 2,2,4,4,6,6-hexaaminocyclotriphosphazatriene]	about 4%

Same assay, conditions: time independent modified soil evaluation procedure, 21-day test period

SMILES	Urease inhibition compared with reference standard PPDA, in words (FIG. 2)
NP1(N)=NP(N)(N)=NP(N)(N)=N1 [P3 N3 (NH2)6, 2,2,4,4,6,6-hexaaminocyclotriphosphazatriene]	as good or better than PPDA for the time period from 14 to 21 days

Tested on: not given
Assay: not given
Details: soil, 168 h; cited from earlier work

SMILES	Percent hydrolyzed in 7 days
NP1(N)=NP(N)(N)=NP(N)(N)=N1 [P3 N3 (NH2)6, 2,2,4,4,6,6-hexaaminocyclotriphosphazatriene]	6-13%

Tested on: not given
Assay: not given
Details: pH 8, 15° C.; cited from earlier work

SMILES	Time of hydrolysis
NP1(N)=NP(N)(N)=NP(N)(N)=N1 [P3 N3 (NH2)6, 2,2,4,4,6,6-hexaaminocyclotriphosphazatriene]	about 300 hours

Same assay, conditions: pH 8, 30° C.; cited from earlier work

SMILES	Time of hydrolysis [h]
NP1(N)=NP(N)(N)=NP(N)(N)=N1 [P3 N3 (NH2)6, 2,2,4,4,6,6-hexaaminocyclotriphosphazatriene]	~100

Tested on: soil urease
Assay: Urea hydrolysis in bands of urea plus inhibitor in Hastings silt loam soil (banded system)
Type: biochemical
Details: not given

SMILES	Soil urease inhibition in words, banded soil tests
ClP1(Oc2ccccc2)=NP(Cl)(Oc2ccccc2)=NP(Cl)(Oc2ccccc2)=N1 (centres unmarked) [P3 N3 (Cl)3 (OC6 H5)3, 2,4,6-triphenoxy-2,4,6-trichlorocyclotriphosphazatriene]	not effective urease inhibitors

Same assay, conditions: Hastings silt loam, banded system, 3-day and 6-day tests

SMILES	Soil urease inhibition in words, banded soil tests
NP1(N)=NP(N)(N)=NP(N)(N)=N1 [P3 N3 (NH2)6, 2,2,4,4,6,6-hexaaminocyclotriphosphazatriene]	comparable to PPDA as an inhibitor of soil urease activity; also recorded: inhibit soil urease during the 3-day and 6-day tests

Same assay, conditions: Table II; equimolar basis, 0.25 millimoles inhibitor/band, 410 mg urea/band; three replications; Hastings silt loam, 25° C.; 3 days

SMILES	Unhydrolyzed Urea, % 3 Days [%]
NP1(N)=NP(N)(N)=NP(N)(N)=N1 [P3 N3 (NH2)6, 2,2,4,4,6,6-hexaaminocyclotriphosphazatriene]	48.1
NP(N)(N)=O [PO(NH2)3, Phosphoryltriamide, reference compound]	43.4

Same assay, conditions: Table II; equimolar basis, 0.25 millimoles inhibitor/band, 410 mg urea/band; three replications; Hastings silt loam, 25° C.; 6 days

SMILES	Unhydrolyzed Urea, % 6 Days [%]
NP1(N)=NP(N)(N)=NP(N)(N)=N1 [P3 N3 (NH2)6, 2,2,4,4,6,6-hexaaminocyclotriphosphazatriene]	16.8
NP(N)(N)=O [PO(NH2)3, Phosphoryltriamide, reference compound]	1.8

Same assay, conditions: Table III; inhibitor 10 percent of urea (wt/wt), 41 mg/band; four replications; Hastings silt loam, 25° C.; 3 days

SMILES	Unhydrolyzed Urea, % 3 Days [%]
NP1(N)=NP(N)(N)=NP(N)(N)=N1 [P3 N3 (NH2)6, 2,2,4,4,6,6-hexaaminocyclotriphosphazatriene]	49.7
NP(N)(N)=O [PO(NH2)3, Phosphoryltriamide, reference compound]	48.1

Same assay, conditions: Table III; inhibitor 10 percent of urea (wt/wt), 41 mg/band; four replications; Hastings silt loam, 25° C.; 6 days

SMILES	Unhydrolyzed Urea, % 6 Days [%]
NP1(N)=NP(N)(N)=NP(N)(N)=N1 [P3 N3 (NH2)6, 2,2,4,4,6,6-hexaaminocyclotriphosphazatriene]	9.5
NP(N)(N)=O [PO(NH2)3, Phosphoryltriamide, reference compound]	1.1

Same assay, conditions: Table IV; inhibitor 10 percent of urea (wt/wt), 41 mg/band; two replications; Hastings silt loam; 3 days

SMILES	Unhydrolyzed Urea, % 3 Days [%]
NP1(N)=NP(N)(N)=NP(N)(N)=N1 [P3 N3 (NH2)6, 2,2,4,4,6,6-hexaaminocyclotriphosphazatriene]	53.8
NP(N)(N)=O [PO(NH2)3, Phosphoryltriamide, reference compound]	54.2

Same assay, conditions: Table IV; inhibitor 10 percent of urea (wt/wt), 41 mg/band; two replications; Hastings silt loam; 6 days

SMILES	Unhydrolyzed Urea, % 6 Days [%]
NP1(N)=NP(N)(N)=NP(N)(N)=N1 [P3 N3 (NH2)6, 2,2,4,4,6,6-hexaaminocyclotriphosphazatriene]	9.5
NP(N)(N)=O [PO(NH2)3, Phosphoryltriamide, reference compound]	2.6

Same assay, conditions: Table VI; 41 mg inhibitor/band, 410 mg urea/band; three replications; Hastings silt loam, 25° C.; 3 days

SMILES	Unhydrolyzed Urea, % Banded 3-Day [%]
NP1(N)=NP(N)(N)=NP(N)(N)=N1 [P3 N3 (NH2)6, 2,2,4,4,6,6-hexaaminocyclotriphosphazatriene]	64

Same assay, conditions: Table VI; 41 mg inhibitor/band, 410 mg urea/band; three replications; Hastings silt loam, 25° C.; 6 days

SMILES	Unhydrolyzed Urea, % Banded 6-Day [%]
NP1(N)=NP(N)(N)=NP(N)(N)=N1 [P3 N3 (NH2)6, 2,2,4,4,6,6-hexaaminocyclotriphosphazatriene]	8

Tested on: soil urease
Assay: Urea remaining unhydrolyzed in Hastings silt loam soil, well-mixed system
Type: biochemical
Details: 1-, 3- and 6-day tests, compared with phenyl phosphorodiamidate

SMILES	Soil urease inhibitory properties in words, well-mixed system
NP1(N)=NP(N)(N)=NP(N)(N)=N1 [P3 N3 (NH2)6, 2,2,4,4,6,6-hexaaminocyclotriphosphazatriene]	less than that of phenyl phosphorodiamidate

Same assay, conditions: Table V; 41 mg inhibitor, 410 mg urea, 100 g soil; three replications; 25° C.; 1 day

SMILES	Unhydrolyzed Urea, % Well-Mixed 1-Day [%]
NP1(N)=NP(N)(N)=NP(N)(N)=N1 [P3 N3 (NH2)6, 2,2,4,4,6,6-hexaaminocyclotriphosphazatriene]	86

Same assay, conditions: Table V; 41 mg inhibitor, 410 mg urea, 100 g soil; three replications; 25° C.; 3 days

SMILES	Unhydrolyzed Urea, % Well-Mixed 3-Day [%]
NP1(N)=NP(N)(N)=NP(N)(N)=N1 [P3 N3 (NH2)6, 2,2,4,4,6,6-hexaaminocyclotriphosphazatriene]	57

Same assay, conditions: Table V; 41 mg inhibitor, 410 mg urea, 100 g soil; three replications; 25° C.; 6 days

SMILES	Unhydrolyzed Urea, % Well-Mixed 6-Day [%]
NP1(N)=NP(N)(N)=NP(N)(N)=N1 [P3 N3 (NH2)6, 2,2,4,4,6,6-hexaaminocyclotriphosphazatriene]	9
